Counter-ions that a name gives are not always drawn.
molecular target: T1, PLK1 (Homo sapiens, UniProt P53350); experiment: Assay for inhibition of PLK1 (SPA kinase assay); format: biochemical; settings: 1 μM ATP, 2 nM PLK1 kinase domain, read-out: PLK1 pIC50 (converted)
T1 construct: PLK kinase domain (amino acids 21-346 preceded by MKKGHHHHHHD); made in house; host or cells: baculovirus infected T. ni cells
Procedure: I. Assay for Inhibition of PLK1
A. Preparation of 6× N-terminal His-tagged PLK Kinase Domain
6× N-terminal His-tagged PLK kinase domain (amino acids 21-346 preceded by MKKGHHHHHHD) SEQ ID: No. 1. was prepared from baculovirus infected T. ni cells under polyhedrin promoter control. All procedures were performed at 4° C. Cells were lysed In 50 mM HEPES, 200 mM NaCl, 50 mM imidazole, 5% glycerol; pH 7.5. The homogenate was centrifuged at 14K rpm in a SLA-1500 rotor for 1 hr and the supernatant filtered through a 1.2 micron filter. The supernatant was loaded onto a Nickel chelating Sepharose (Amersham Pharmacia) column and washed with lysis buffer. Protein was eluted using 20%, 30% and 100% buffer B steps where buffer B was 50 mM HEPES, 200 mM NaCl, 300 mM imidazole, 5% glycerol; pH 7.5. Fractions containing PLK were determined by SDS-PAGE. Fractions containing PLK were diluted five-fold with 50 mM HEPES, 1 mM DTT, 5% glycerol; pH 7.5, then loaded on an SP Sepharose (Amersham Pharmacia) column. After washing the column with 50 mM HEPES, 1 mM DTT, 5% glycerol; pH 7.5, PLK was step eluted with 50 mM HEPES, 1 mM DTT, 500 mM NaCl; 5% glycerol; pH 7.5. PLK was concentrated using a 10 kDa molecular weight cutoff membrane and then loaded onto a Superdex 200 gel filtration (Amersham Pharmacia) column equilibrated in 25 mM HEPES, 1 mM DTT, 500 mM NaCl, 5% glycerol; pH 7.5. Fractions containing PLK were determined by SDS-PAGE. PLK was pooled, aliquoted and stored at −80° C. Samples were quality controlled using mass spectrometry, N-terminal sequencing and amino acid analysis.
B. Enzyme Activity +/− Inhibitors was Determined as Follows:
All measurements were obtained under conditions where signal production increased linearly with time and enzyme. Test compounds were added to white 384-well assay plates (0.1 μL for 10 μL and some 20 μL assays, 1 μL for some 20 μL assays) at variable known concentrations in 100% DMSO. DMSO (1-5% final, as appropriate) and EDTA (65 mM in reaction) were used as controls. Reaction Mix was prepared as follows at 22° C.: • 25 mM HEPES, pH 7.2 • 15 mM MgCl2 • 1 μM ATP • 0.05 μCi/well ^33P-γ ATP (10 Ci/mMol) • 1 μM substrate peptide (Biotin-Ahx-SFNDTLDFD) SEQ ID:No. 2. • 0.15 mg/mL BSA • 1 mM DTT • 2 nM PLK1 kinase domain (added last)
Reaction Mix (10 or 20 μL) was quickly added to each well immediately following addition of enzyme via automated liquid handlers and incubated 1-1.5 h at 22° C. The 20 μL enzymatic reactions were stopped with 50 μL of stop mix (50 mM EDTA, 4.0 mg/mL Streptavidin SPA beads in Standard Dulbecco's PBS (without Mg^2+ and Ca^2+), 50 μM ATP) per well. The 10 μL reactions were stopped with 10 μL of stop mix (50 mM EDTA, 3.0 mg/mL Streptavidin-coupled SPA imaging Beads (“LeadSeeker”) in Standard Dulbecco's PBS (without Mg^2+ and Ca^2+), 50 μM ATP) per well. Plates were sealed with clear plastic seals, spun at 500×g for 1 min or settled overnight, and counted in Packard TopCount for 30 seconds/well (regular SPA) or imaged using a Viewlux imager (LeadSeeker SPA). Signal above background (EDTA controls) was converted to percent Inhibition relative to that obtained in control (DMSO-only) wells.

T1 sequence (P53350 21-346): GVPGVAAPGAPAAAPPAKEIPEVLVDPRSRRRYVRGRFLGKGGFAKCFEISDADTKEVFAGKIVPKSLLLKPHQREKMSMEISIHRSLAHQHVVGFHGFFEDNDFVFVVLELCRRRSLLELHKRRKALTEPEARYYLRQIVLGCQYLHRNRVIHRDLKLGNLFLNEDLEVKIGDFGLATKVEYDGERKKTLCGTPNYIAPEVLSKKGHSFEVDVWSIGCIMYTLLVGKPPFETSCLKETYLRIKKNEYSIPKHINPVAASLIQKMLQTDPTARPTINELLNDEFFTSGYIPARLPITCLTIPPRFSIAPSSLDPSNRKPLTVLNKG

| IC50 | SMILES |
| --- | --- |
| < 100 nM | C[C@@H](Oc1cc(-n2cnc3cc(Cl)ccc32)sc1C(N)=O)c1cccc(OC2CCN(CCF)CC2)c1Cl [Example 21, 5-(5-Chloro-1H-benzimidazol-1-yl)-3-{[(1R)-1-(2-chloro-3-{[1-(2-fluoroethyl)-4-piperidinyl]oxy}phenyl)ethyl]oxy}-2-thiophenecarboxamide] |
| < 100 nM | C[C@@H](Oc1cc(-n2cnc3cc(Cl)ccc32)sc1C(N)=O)c1cccc(OC2CCN(CCN)CC2)c1Cl [Example 22, 3-{[(1R)-1-(3-{[1-(2-aminoethyl)-4-piperidinyl]oxy}-2-chlorophenyl)ethyl]oxy}-5-(5-chloro-1H-benzimidazol-1-yl)-2-thiophenecarboxamide] |
| < 100 nM | C[C@@H](Oc1cc(-n2cnc3cc(-c4cnn(C)c4)ccc32)sc1C(N)=O)c1cccc(OCCN2CCOCC2)c1Cl [Example 25, 3-{[(1R)-1-(2-chloro-3-{[2-(4-morpholinyl)ethyl]oxy}phenyl)ethyl]oxy}-5-[5-(1-methyl-1H-pyrazol-4-yl)-1H-benzimidazol-1-yl]-2-thiophenecarboxamide] |
| < 100 nM | C[C@@H](Oc1cc(-n2cnc3cc(-c4cnn(C)c4)ccc32)sc1C(N)=O)c1cccc(OC2CCN(CCF)CC2)c1Cl [Example 29, 3-{[(1R)-1-(2-Chloro-3-{[1-(2-fluoroethyl)-4-piperidinyl]oxy}phenyl)ethyl]oxy}-5-[5-(1-methyl-1H-pyrazol-4-yl)-1H-benzimidazol-1-yl]-2-thiophenecarboxamide] |
| < 100 nM | C[C@@H](Oc1cc(-n2cnc3cc(-c4cnn(C)c4)ccc32)sc1C(N)=O)c1cccc(OC2CCN(CCC(F)(F)F)CC2)c1Cl [Example 30, 3-{[(1R)-1-(2-chloro-3-{[1-(3,3,3-trifluoropropyl)-4-piperidinyl]oxy}phenyl)ethyl]oxy}-5-[5-(1-methyl-1H-pyrazol-4-yl)-1H-benzimidazol-1-yl]-2-thiopenecarboxamide] |
| < 100 nM | C[C@@H](Oc1cc(-n2cnc3cc(-c4cnn(C)c4)ccc32)sc1C(N)=O)c1cccc(OC2CCN(CCS(C)(=O)=O)CC2)c1Cl [Example 31, 3-({(1R)-1-[2-Chloro-3-({1-[2-(methylsulfonyl)ethyl]-4-piperldinyl}oxy)phenyl]ethyl}oxy)-5-[5-(1-methyl-1H-pyrazol-4-yl)-1H-benzimidazol-1-yl]-2-thiophenecarboxamide] |
| < 100 nM | C[C@@H](Oc1cc(-n2cnc3cc(-c4cnn(C)c4)ccc32)sc1C(N)=O)c1ccc(F)c(OC2CCN(C)CC2)c1Cl [Example 34, 3-[((1R)-1-{2-Chloro-4-fluoro-3-[(1-methyl-4-piperidinyl)oxy]phenyl}ethyl)oxy]-5-[5-(1-methyl-1H-pyrazol-4-yl)-1H-benzimidazol-1-yl]-2-thiophenecarboxamide trifluoroacetate] |

Further lines, the molecule ahead of its results:

| SMILES | IC50 |
| --- | --- |
| C[C@@H](Oc1cc(-n2cnc3ccccc32)sc1C(N)=O)c1cccc(OCCN2CCOCC2)c1Cl [Example 15, 5-(1H-benzimidazol-1-yl)-3-{[(1R)-1-(2-chloro-3-{[2-(4-morpholinyl)ethyl]oxy}phenyl)ethyl]oxy}-2-thiophenecarboxamide] | < 100 nM |
| C[C@@H](Oc1cc(-n2cnc3ccccc32)sc1C(N)=O)c1cccc(OCCN2CCNCC2)c1Cl [Example 16, 5-(1H-benzimidazol-1-yl)-3-{[(1R)-1-(2-chloro-3-{[2-(1-piperazinyl)ethyl]oxy}phenyl)ethyl]oxy}-2-thiophenecarboxamide] | < 100 nM |
| C[C@@H](Oc1cc(-n2cnc3ccccc32)sc1C(N)=O)c1cccc(OCCN2CCN(C)CC2)c1Cl [Example 17, 5-(1H-benzimidazol-1-yl)-3-{[(1R)-1-(2-chloro-3-{[2-(4-methyl-1-piperazinyl)ethyl]oxy}phenyl)ethyl]ocy}-2-thiophenecarboxamide] | < 100 nM |
| C[C@@H](Oc1cc(-n2cnc3cc(-c4ccc(NC5CCN(C)CC5)nc4)ccc32)sc1C(N)=O)c1cccc(OC2CCN(C)CC2)c1Cl [Example 18, 3-[((1R)-1-{2-chloro-3-[(1-methyl-4-piperidinyl)oxy]phenyl}ethyl)oxy]-5-(5-{6-[(1-methyl-4-piperidinyl)amino]-3-pyridinyl}-1H-benzimidazol-1-yl)-2-thiophenecarboxamide] | < 100 nM |
| CCN1CCC(Oc2cccc([C@@H](C)Oc3cc(-n4cnc5cc(Cl)ccc54)sc3C(N)=O)c2Cl)CC1 [Example 19, 5-(5-Chloro-1H-benzimidazol-1-yl)-3-[((1R)-1-{2-chloro-3-[(1-ethyl-4-piperidinyl)oxy]phenyl}ethyl)oxy]-2-thiophenecarboxamide] | < 100 nM |
| C[C@@H](Oc1cc(-n2cnc3cc(Cl)ccc32)sc1C(N)=O)c1cccc(OC2CCN(CCO)CC2)c1Cl [Example 20, 5-(5-Chloro-1H-benzimidazol-1-yl)-3-{[(1R)-1-(2-chloro-3-{[1-(2-hydroxyethyl)-4-piperidinyl]oxy}phenyl)ethyl]oxy}-2-thiophenecarboxamide] | < 100 nM |
| C[C@@H](Oc1cc(-n2cnc3cc(Cl)ccc32)sc1C(N)=O)c1cccc(OC2CCN(CCS(C)(=O)=O)CC2)c1Cl [Example 23, 5-(5-Chloro-1H-benzimidazol-1-yl)-3-({(1R)-1-[2-chloro-3-({1-[2-(methylsulfonyl)ethyl]-4-piperidinyl}oxy)phenyl]ethyl}oxy)-2-thiophenecarboxamide] | < 100 nM |
| CC(C)N1CCC(Oc2cccc([C@@H](C)Oc3cc(-n4cnc5cc(Cl)ccc54)sc3C(N)=O)c2Cl)CC1 [Example 24, 5-(5-Chloro-1H-benzimidazol-1-yl)-3-{[(1R)-1-(2-chloro-3-{[1-(1-methylethyl)-4-piperidinyl]oxy}phenyl)ethyl]oxy}-2-thiophenecarboxamide] | < 100 nM |
| C[C@@H](Oc1cc(-n2cnc3cc(Cl)ccc32)sc1C(N)=O)c1cccc(OCCN2CCOCC2)c1Cl [Example 26, 5-(5-Chloro-1H-benzimidazol-1-yl)-3-{[(1R)-1-(2-chloro-3-{[2-(4-morpholinyl)ethyl]oxy}phenyl)ethyl]oxy}-2-thiophenecarboxamide] | < 100 nM |
| C[C@@H](Oc1cc(-n2cnc3cc(Cl)ccc32)sc1C(N)=O)c1cccc(OC[C@H]2CNCCO2)c1Cl [Example 27, 5-(5-Chloro-1H-benzimidazol-1-yl)-3-{[(1R)-1-(2-chloro-3-{[(2R)-2-morpholinylmethyl]oxy}phenyl)ethyl]oxy}-2-thiophenecarboxamide] | < 100 nM |
| C[C@@H](Oc1cc(-n2cnc3cc(Cl)ccc32)sc1C(N)=O)c1cccc(OC[C@@H]2CNCCO2)c1Cl [Example 28, 5-(5-Chloro-1H-benzimidazol-1-yl)-3-{[(1R)-1-(2-chloro-3-{[(2S)-2-morpholinylmethyl]oxy}phenyl)ethyl]oxy}-2-thiophenecarboxamide] | < 100 nM |
| C[C@@H](Oc1cc(-n2cnc3cc(Cl)ccc32)sc1C(N)=O)c1ccc(F)c(OC2CCN(C)CC2)c1Cl [Example 32, 5-(5-Chloro-1H-benzimidazol-1-yl)-3-[((1R)-1-{2-chloro-4-fluoro-3-[(1-methyl-4-piperidinyl)oxy]phenyl}ethyl)oxy]-2-thiophenecarboxamide] | < 100 nM |
| C[C@@H](Oc1cc(-n2cnc3cc(-c4cnn(C)c4)ccc32)sc1C(N)=O)c1ccc(F)c(OC2CCNCC2)c1Cl [Example 33, 3-({(1R)-1-[2-Chloro-4-fluoro-3-(4-piperidinyloxy)phenyl]ethyl}oxy)-5-[5-(1-methyl-1H-pyrazol-4-yl)-1H-benzimidazol-1-yl]-2-thiophenecarboxamide] | < 100 nM |
